Each structure is given as a SMILES string.

The subject of the first assay is K562. The assay can be described thus: K562 assay, in vitro cytotoxicity of PBD payloads (MTS, 4 days). To be noted: Homo sapiens, K562, 96 h; 4 days incubation, mean of three independent replicates. In kind it is cell-based. Here is the method:
The potency of each of the PBD molecules were measured via in vitro cytotox assays in the carcinoma cell line K562.
(§1) Solid PBD material was dissolved in DMSO to a 2 mM stock solution, from which eight serial dilutions were made at a 1:10 ratio in DMSO and stored at −20° C. until use.
Adherent K562 cells were washed with D-PBS and detached with Trypsin-EDTA, cell density and viability were then determined in duplicate by Trypan blue exclusion assay using an automated cell counter (LUNA-II™). Cell suspension was diluted to 1×10^5 cells/ml in growth media (RPMI 1640 with Glutamax+10% (v/v) HyClone™ Fetal Bovine Serum) and vortexed before dispensing 2 mL per well into sterile 3 mL polypropylene plates. […] At the end of the incubation period time (4 days), cell viability was measured by CellTiter 96® Aqueous One (MTS) assay, which was dispensed at 20 μl/well and incubated for 4 hours at 37° C., 5% CO2. Plates were then read on an EnVision® Multi-label Plate Reader (Perkin Elmer) using absorbance at 490 nm.
Cell survival percentage was calculated from the mean absorbance of the 2 replicate wells for each sample, compared to the mean absorbance in the two control wells treated with DMSO only (100%). The IC50 was determined by fitting each data set to sigmoidal dose-response curves with a variable slope using the non-linear curve fit algorithm on the GraphPad Prism software (San Diego, Calif.). […]
By IC50 is commonly meant the concentration that gives 50% inhibition. The low end stands for inhibition by little substance, the high end for a need for much substance. Compound `COC(=O)c1cc(COc2cc3c(cc2OC)C(=O)N2C=C(C)C[C@H]2C=N3)cc(COc2cc3c(cc2OC)C(=O)N2C=C(C)C[C@H]2C=N3)c1` [Compound 47, Methyl 3,5-bis((((S)-7-methoxy-2-methyl-5-oxo-5,11a-dihydro-1H-benzo[e]pyrrolo[1,2-a][1,4]diazepin-8-yl)oxy)methyl)benzoate] had an IC50 of 0.162 nM. In turn, `COc1cc2c(cc1OCc1cc(COc3cc4c(cc3OC)C(=O)N3C=C(C)C[C@H]3C=N4)cc(C(=O)O)c1)N=C[C@@H]1CC(C)=CN1C2=O` [Compound 49, 3,5-bis((((S)-7-methoxy-2-methyl-5-oxo-5,11a-dihydro-1H-benzo[e]pyrrolo[1,2-a][1,4]diazepin-8-yl)oxy)methyl)benzoic acid] registered an IC50 of 1.84 nM.

The next assay deals with NCI-N87. Nature of the assay: NCI-N87 assay, in vitro cytotoxicity of PBD payloads (MTS, 7 days). In kind it is cell-based. To be noted: Homo sapiens, NCI-N87, 168 h; 7 days incubation, mean of three independent replicates. Here is the method:
The potency of each of the PBD molecules were measured via in vitro cytotoxicity assays in the carcinoma cell line NCI-N87.
as §1
Adherent NCI-N87 cells were washed with D-PBS and detached with Trypsin-EDTA, cell density and viability were then determined in duplicate by Trypan blue exclusion assay using an automated cell counter (LUNA-II™). Cell suspension was diluted to 1×10^5 cells/ml in growth media (RPMI 1640 with Glutamax+10% (v/v) HyClone™ Fetal Bovine Serum) and vortexed before dispensing 2 mL per well into sterile 3 mL polypropylene plates. Warhead dilutions were then dispensed into the appropriate wells at 10 μl/well and mixed by repeat pipetting. For control wells 10 μl of DMSO was dispensed onto 2 mL cell suspension, and thoroughly mixed. 100 μl of each sample was then aliquoted into 2 replicate wells of a sterile flat 96-well microplate and incubated in a 37° C. CO2-gassed (5%) incubator. At the end of the incubation period time (7 days), cell viability was measured by CellTiter 96® Aqueous One (MTS) assay, which was dispensed at 20 μl/well and incubated for 4 hours at 37° C., 5% CO2.
Plates were then read on an EnVision® Multi-label Plate Reader (Perkin Elmer) using absorbance at 490 nm.
Cell survival percentage was calculated from the mean absorbance of the 2 replicate wells for each sample, compared to the mean absorbance in the two control wells treated with DMSO only (100%). The IC50 was determined by fitting each data set to sigmoidal dose-response curves with a variable slope using the non-linear curve fit algorithm on the GraphPad Prism software (San Diego, Calif.).
All the experiments in this report were carried out and tested in three independent experiments. Data are reported as the mean of the three independent replicates.
In turn, `C=C1C[C@H]2C=Nc3cc(OCc4cc(COc5cc6c(cc5OC)C(=O)N5CC(=C)C[C@H]5C=N6)cc(C(=O)OC)c4)c(OC)cc3C(=O)N2C1` [Compound 51, Methyl 3,5-bis((((S)-7-methoxy-2-methylene-5-oxo-2,3,5,11a-tetrahydro-1H-benzo[e]pyrrolo[1,2-a][1,4]diazepin-8-yl)oxy)methyl)benzoate] had an IC50 of 0.0685 nM. Still for that read-out and setting: then `C=C1C[C@H]2C=Nc3cc(OCc4cc(COc5cc6c(cc5OC)C(=O)N5CC(=C)C[C@H]5C=N6)cc(C(=O)O)c4)c(OC)cc3C(=O)N2C1` [Compound 53, 3,5-bis((((S)-7-Methoxy-2-methylene-5-oxo-2,3,5,11a-tetrahydro-1H-benzo[e]pyrrolo[1,2-a][1,4]diazepin-8-yl)oxy)methyl)benzoic acid], with 4.31 nM; and `C=C1C[C@H]2C=Nc3cc(OCc4cc(C(=O)OC)cc(COc5cc6c(cc5OC)C(=O)N5CC(=C)C[C@H]5C=N6)n4)c(OC)cc3C(=O)N2C1` [Compound 55, Methyl 2,6-bis((((S)-7-methoxy-2-methylene-5-oxo-2,3,5,11a-tetrahydro-1H-benzo[e]pyrrolo[1,2-a][1,4]diazepin-8-yl)oxy)methyl)isonicotinate], with 0.0168 nM. For `C=C1C[C@H]2C=Nc3cc(OCc4cc(C(=O)O)cc(COc5cc6c(cc5OC)C(=O)N5CC(=C)C[C@H]5C=N6)n4)c(OC)cc3C(=O)N2C1` [Compound 56, 2,6-Bis((((S)-7-methoxy-2-methylene-5-oxo-2,3,5,11a-tetrahydro-1H-benzo[e]pyrrolo[1,2-a][1,4]diazepin-8-yl)oxy)methyl)isonicotinic acid], it took 20.7 nM to reach half-maximal inhibition (IC50).

`C=C1C[C@H]2C=Nc3cc(OCc4cccc(COc5cc6c(cc5OC)C(=O)N5CC(=C)C[C@H]5C=N6)c4)c(OC)cc3C(=O)N2C1` [Compound 58, (11aS,11a′S)-8,8′-((1,3-phenylenebis(methylene))bis(oxy))bis(7-methoxy-2-methylene-1,2,3,11a-tetrahydro-5H-benzo[e]pyrrolo[1,2-a][1,4]diazepin-5-one), reference compound]: inhibition was half-maximal at 0.0172 nM (IC50).

The record behind these values is US11524969B2, “Pyrrolobenzodiazepines and conjugates thereof as antitumour agents” (MEDIMMUNE LIMITED, priority 2018, dated 2022).
